We go through three sequences from US8207293B2, “Peptides derived from maurocalcine used as vectors for intracellular addressing of molecules of interest” (Commissariat a l'Energie Atomique, priority 2004, dated 2012).

Where two headings read alike, the source gives them in different places.

For assay [1], the target named is T1, RyR1 receptor (Oryctolagus cuniculus, UniProt P11716).
T1 construct: from tissue; host or cells: heavy sarcoplasmic reticulum vesicles (skeletal muscle implied)
The assay can be described thus: Tritiated ryanodine binding assay on heavy sarcoplasmic reticulum vesicles. The settings on record: biotinylated variants complexed with Strept-Cy3, increasing concentrations. As to the method:
The heavy sarcoplasmic reticulum vesicles are prepared according to the method of Kim et al. (J. Biol. Chem., 1983, 258, 9662-9668) modified as described in Marty et al. (J. Biol. Chem., 2000, 275, 8206-8212). The protein concentration is measured by the Biuret method.
The heavy sarcoplasmic reticulum vesicles (1 mg/ml) are incubated at 37° C. for 2 hours and 30 min, in reaction buffer comprising 5 nM [^3H]-ryanodine, 150 mM NaCl, 2 mM EGTA, 2 mM Ca^2+ (pCa=5) and 20 mM Hepes, pH 7.4. Maurocalcine, the maurocalcine-derived peptides and their biotinylated derivatives are added before the addition of the heavy sarcoplasmic reticulum vesicles. The [^3H]-ryanodine bound to the heavy sarcoplasmic vesicles is measured by filtration through Whatmann GF/B filters, followed by three washes with 5 ml of ice-cold washing buffer (150 mM NaCl, 20 mM Hepes, pH 7.4). The [^3H]-ryanodine retained on the filters is measured by liquid scintillation. The nonspecific binding is measured in the presence of […] ryanodine (20 μM). The results are given in the form of means±standard deviation. Each experiment is carried out in triplicate and repeated at least twice.

Assay [2] deals with HEK293 cells. The assay is described as follows: Cell penetration and subcellular distribution of complexes in HEK293 cells, confocal microscopy. The settings on record: 333 nM, 30 min. The class given is cell-based, human. Here is the method:
Soluble streptavidin-cyanin 3 and streptavidin-cyanin 5 (Strept-Cy^3 and Strept-Cy^5, AMERSHAM) were mixed with 4 molar equivalents of biotinylated maurocalcine (1 mM) or biotinylated maurocalcine-derived peptide, in phosphate buffer (PBS, in mM: 136 NaCl, 1.47 Na2HPO4, 2.6 KCl, 1 CaCl2, 0.5 MgCl2, pH 7.2), for 2 hours at 37° C. and in the dark.
The human embryonic kidney cells (HEK 293 line, ATCC) are divided before confluence, by treatment with trypsin (1%), and are maintained in DMEM medium (INVITROGEN) containing 10% of inactivated fetal calf serum (INVITROGEN) and 1% of penicillin/streptomycin (INVITROGEN), in a CO2 incubator (5%). The culture medium is changed every 2 days.
The cells were incubated with maurocalcine and the derived peptides, biotinylated and complexed with streptavidin-cyanin 3 or with streptavidin-cyanin 5, […], in the dark and at ambient temperature, for 30 minutes to 1 hour. After 3 washes in PBS, the cells are fixed at ambient temperature, in a paraformaldehyde solution (4%), for 10 min, in the dark, washed in PBS and incubated for one hour with FITC-conjugated concanavalin (MOLECULAR PROBES, 5 μg/ml) in order to label the plasma membrane, and TO-PRO-3 iodide (MOLECULAR PROBES, 1 μM) in order to label the nucleus. In order to label the cytoskeleton, the cells were fixed and permeabilized with ice-cold methanol, for 10 min, washed twice in PBS and incubated with a mouse anti-alpha-tubulin antibody (1:1000, SIGMA), for 2 hours. After two washes in PBS, the cells were incubated for one hour with an anti-mouse IgG secondary antibody conjugated to Alexa 488 (1:1000, MOLECULAR PROBES). The cultures were then mounted in Vectashield mounting medium (VECTOR LABORATORIES). Preparations were observed by laser scanning confocal microscopy, using a Leica TCS-SP2 control system. The Alexa-488 and Cy3 or propidium iodide (PI) fluorescences were excited sequentially and then recorded. The Cy3 fluorescence was excited using a 543 nm helium-neon laser beam and the fluorescence emission was recorded between 554 nm and 625 nm. The images were introduced into Adobe Photoshop 7.0.

The subject of assay [3] is HEK293 cells. The assay can be described thus: Flow cytometry analysis of cellular penetration of complexes (trypsin/heparin treatment). The class given is cell-based, human. As to conditions: for penetrating activity compared with maurocalcine (factor): biotinylated variant/Strept-Cy3 complexes, FIG. 5. Here is the method: The cells are incubated with maurocalcine and the derived peptides, biotinylated and complexed with […], at the final concentration of 100 nM in PBS, in the dark and at ambient temperature for 1 hour. After 2 washes in PBS (PBS, in mM: […], 6.84 Na2HPO4, 3.16 NaH2PO4, pH 7.2), and the cells were treated with trypsin (1 mg/ml, INVITROGEN), for 10 min at 37° C., in order to remove the extracellular complexes and the plasma-membrane-bound complexes. After the incubation with trypsin, the cell suspension was centrifuged at 500 g and the cells were resuspended in PBS containing 1 μg/ml of propidium iodide (SIGMA). […] The analysis was carried out on live cells, using a flow cytometer (FACScalibur, BECTON DICKINSON). The data were recorded and analyzed using appropriate software (CellQuest, BD BIOSCIENCES). The live cells were sorted according to their size and their granulosity (forward/side scattering), over a total of 10 000 events.
The analysis is carried out as described in Example 1. For the heparin treatment experiments, the complexes were prepared in a heparin solution (bovine intestine heparin, sodium salt, SIGMA) and the cells were washed twice with the heparin solution, before and after incubation with the complexes prepared in the same heparin solution.
The cellular penetration was analyzed by flow cytometry, on cells incubated with the MCab/Strept-Cy3 complexes, and then treated with trypsin, so as to remove the complexes bound to the plasma membrane by means of lipids, specific receptors or heparan sulfate glycosaminoglycan (HPSG). It has been shown that this method makes it possible to effectively study the entry of penetrating peptides into cells (Richard et al., J. Biol. Chem., 2003, 278, 585-590).
(Flow cytometry measures light scatter and fluorescence of single cells or particles in a stream.)

A short description of assay [4]: Surface pressure of monomolecular lipid films (GD3). As to the method: (§1) The disialoganglioside NeuAcα2-8NeuAca2-3Galb1-aGlcb1-Cer (GD3) and dipalmitoylphosphatidylcholine (DPPC) were provided respectively by MATREYA INC and SIGMA.
(§2) The surface pressure was measured using an automatic microtensiometer (μ THROUGH SX, KIBRON INC.). The apparatus makes it possible to record kinetics of interaction of a ligand with a monomolecular film using a series of appropriate Teflon probes. All the experiments were carried out in a controlled atmosphere at 20±1. The molecular films of the lipids indicated were deposited onto an aqueous phase of ultrapure water (800 μl), using hexane:chloroform:ethanol (11:5:4, v/v/v), as described previously (Mahfoud et al., J. Biol. Chem., 2002, 277, 11292-11296). After spreading of the film, a minimum period of elapsed time of 5 min was observed, in order to allow the solvent to evaporate off. In order to measure the interaction of MCa with the lipid monolayers, various concentrations of peptides were injected into the monomolecular film with a […] Hamilton syringe and the resulting increase in pressure, produced by the incorporation of the peptide, was recorded until equilibrium was reached (maximum increase in surface pressure generally reached after an incubation of 100 to 150 min). For the dose-dependent interaction between MCa and GD3, the monomolecular films of GD3 were prepared at an initial surface pressure (pi) of 10 mN·m^−1. The results were analyzed with Filmware 2.5 software (KIBRON INC.). The system for measuring the surface pressures was accurate to 0.25 mN·m^−1 under the experimental conditions.

Assay [5] concerns live cells. The assay can be described thus: Flow cytometry analysis of cellular penetration at increasing extracellular KCl (membrane potential). It counts as cell-based. As to the method:
The MCab-Strept-Cy^5 complexes were prepared in solutions containing various NaCl/KCl ratios (composition in mM: 145 to 5 NaCl, 5 to 145 KCl, 2.5 CaCl2, 1.2 MgCl2, 10 glucose, 10 HEPES, pH 7.4).
The cells were washed twice with the NaCl/KCl solution used to prepare the complexes, and then incubated with maurocalcine and the derived peptides, which are biotinylated and complexed with streptavidin-cyanin 3 (MCab-Strept-Cy^3 complexes), at the final concentration of 100 nM in the same NaCl/KCl solution, in the dark and at ambient temperature for 1 hour. After 2 washes in the same NaCl/KCl buffer, the cyanin 3 fluorescence was analyzed on live cells, using a flow cytometer (FACScalibur, BECTON DICKINSON). The data were recorded and analyzed using appropriate software (CellQuest, BD BIOSCIENCES). The live cells were sorted according to their size and their granulosity (forward/side scattering), over a total of 10 000 events.

Assay [6] can be described thus: Surface pressure of monomolecular lipid films (DPPC). The settings on record: 1 μM. Here is the method: as §1
as §2, with “For the dose-dependent interaction between MCa and GD3, the monomolecular films of GD3 were prepared at an initial surface pressure (pi) of 10 mN·m^−1.” left out, “The system for measuring the surface pressures was accurate to 0.25 mN·m^−1 under the experimental conditions.” left out

T1 sequence (P11716 whole entry): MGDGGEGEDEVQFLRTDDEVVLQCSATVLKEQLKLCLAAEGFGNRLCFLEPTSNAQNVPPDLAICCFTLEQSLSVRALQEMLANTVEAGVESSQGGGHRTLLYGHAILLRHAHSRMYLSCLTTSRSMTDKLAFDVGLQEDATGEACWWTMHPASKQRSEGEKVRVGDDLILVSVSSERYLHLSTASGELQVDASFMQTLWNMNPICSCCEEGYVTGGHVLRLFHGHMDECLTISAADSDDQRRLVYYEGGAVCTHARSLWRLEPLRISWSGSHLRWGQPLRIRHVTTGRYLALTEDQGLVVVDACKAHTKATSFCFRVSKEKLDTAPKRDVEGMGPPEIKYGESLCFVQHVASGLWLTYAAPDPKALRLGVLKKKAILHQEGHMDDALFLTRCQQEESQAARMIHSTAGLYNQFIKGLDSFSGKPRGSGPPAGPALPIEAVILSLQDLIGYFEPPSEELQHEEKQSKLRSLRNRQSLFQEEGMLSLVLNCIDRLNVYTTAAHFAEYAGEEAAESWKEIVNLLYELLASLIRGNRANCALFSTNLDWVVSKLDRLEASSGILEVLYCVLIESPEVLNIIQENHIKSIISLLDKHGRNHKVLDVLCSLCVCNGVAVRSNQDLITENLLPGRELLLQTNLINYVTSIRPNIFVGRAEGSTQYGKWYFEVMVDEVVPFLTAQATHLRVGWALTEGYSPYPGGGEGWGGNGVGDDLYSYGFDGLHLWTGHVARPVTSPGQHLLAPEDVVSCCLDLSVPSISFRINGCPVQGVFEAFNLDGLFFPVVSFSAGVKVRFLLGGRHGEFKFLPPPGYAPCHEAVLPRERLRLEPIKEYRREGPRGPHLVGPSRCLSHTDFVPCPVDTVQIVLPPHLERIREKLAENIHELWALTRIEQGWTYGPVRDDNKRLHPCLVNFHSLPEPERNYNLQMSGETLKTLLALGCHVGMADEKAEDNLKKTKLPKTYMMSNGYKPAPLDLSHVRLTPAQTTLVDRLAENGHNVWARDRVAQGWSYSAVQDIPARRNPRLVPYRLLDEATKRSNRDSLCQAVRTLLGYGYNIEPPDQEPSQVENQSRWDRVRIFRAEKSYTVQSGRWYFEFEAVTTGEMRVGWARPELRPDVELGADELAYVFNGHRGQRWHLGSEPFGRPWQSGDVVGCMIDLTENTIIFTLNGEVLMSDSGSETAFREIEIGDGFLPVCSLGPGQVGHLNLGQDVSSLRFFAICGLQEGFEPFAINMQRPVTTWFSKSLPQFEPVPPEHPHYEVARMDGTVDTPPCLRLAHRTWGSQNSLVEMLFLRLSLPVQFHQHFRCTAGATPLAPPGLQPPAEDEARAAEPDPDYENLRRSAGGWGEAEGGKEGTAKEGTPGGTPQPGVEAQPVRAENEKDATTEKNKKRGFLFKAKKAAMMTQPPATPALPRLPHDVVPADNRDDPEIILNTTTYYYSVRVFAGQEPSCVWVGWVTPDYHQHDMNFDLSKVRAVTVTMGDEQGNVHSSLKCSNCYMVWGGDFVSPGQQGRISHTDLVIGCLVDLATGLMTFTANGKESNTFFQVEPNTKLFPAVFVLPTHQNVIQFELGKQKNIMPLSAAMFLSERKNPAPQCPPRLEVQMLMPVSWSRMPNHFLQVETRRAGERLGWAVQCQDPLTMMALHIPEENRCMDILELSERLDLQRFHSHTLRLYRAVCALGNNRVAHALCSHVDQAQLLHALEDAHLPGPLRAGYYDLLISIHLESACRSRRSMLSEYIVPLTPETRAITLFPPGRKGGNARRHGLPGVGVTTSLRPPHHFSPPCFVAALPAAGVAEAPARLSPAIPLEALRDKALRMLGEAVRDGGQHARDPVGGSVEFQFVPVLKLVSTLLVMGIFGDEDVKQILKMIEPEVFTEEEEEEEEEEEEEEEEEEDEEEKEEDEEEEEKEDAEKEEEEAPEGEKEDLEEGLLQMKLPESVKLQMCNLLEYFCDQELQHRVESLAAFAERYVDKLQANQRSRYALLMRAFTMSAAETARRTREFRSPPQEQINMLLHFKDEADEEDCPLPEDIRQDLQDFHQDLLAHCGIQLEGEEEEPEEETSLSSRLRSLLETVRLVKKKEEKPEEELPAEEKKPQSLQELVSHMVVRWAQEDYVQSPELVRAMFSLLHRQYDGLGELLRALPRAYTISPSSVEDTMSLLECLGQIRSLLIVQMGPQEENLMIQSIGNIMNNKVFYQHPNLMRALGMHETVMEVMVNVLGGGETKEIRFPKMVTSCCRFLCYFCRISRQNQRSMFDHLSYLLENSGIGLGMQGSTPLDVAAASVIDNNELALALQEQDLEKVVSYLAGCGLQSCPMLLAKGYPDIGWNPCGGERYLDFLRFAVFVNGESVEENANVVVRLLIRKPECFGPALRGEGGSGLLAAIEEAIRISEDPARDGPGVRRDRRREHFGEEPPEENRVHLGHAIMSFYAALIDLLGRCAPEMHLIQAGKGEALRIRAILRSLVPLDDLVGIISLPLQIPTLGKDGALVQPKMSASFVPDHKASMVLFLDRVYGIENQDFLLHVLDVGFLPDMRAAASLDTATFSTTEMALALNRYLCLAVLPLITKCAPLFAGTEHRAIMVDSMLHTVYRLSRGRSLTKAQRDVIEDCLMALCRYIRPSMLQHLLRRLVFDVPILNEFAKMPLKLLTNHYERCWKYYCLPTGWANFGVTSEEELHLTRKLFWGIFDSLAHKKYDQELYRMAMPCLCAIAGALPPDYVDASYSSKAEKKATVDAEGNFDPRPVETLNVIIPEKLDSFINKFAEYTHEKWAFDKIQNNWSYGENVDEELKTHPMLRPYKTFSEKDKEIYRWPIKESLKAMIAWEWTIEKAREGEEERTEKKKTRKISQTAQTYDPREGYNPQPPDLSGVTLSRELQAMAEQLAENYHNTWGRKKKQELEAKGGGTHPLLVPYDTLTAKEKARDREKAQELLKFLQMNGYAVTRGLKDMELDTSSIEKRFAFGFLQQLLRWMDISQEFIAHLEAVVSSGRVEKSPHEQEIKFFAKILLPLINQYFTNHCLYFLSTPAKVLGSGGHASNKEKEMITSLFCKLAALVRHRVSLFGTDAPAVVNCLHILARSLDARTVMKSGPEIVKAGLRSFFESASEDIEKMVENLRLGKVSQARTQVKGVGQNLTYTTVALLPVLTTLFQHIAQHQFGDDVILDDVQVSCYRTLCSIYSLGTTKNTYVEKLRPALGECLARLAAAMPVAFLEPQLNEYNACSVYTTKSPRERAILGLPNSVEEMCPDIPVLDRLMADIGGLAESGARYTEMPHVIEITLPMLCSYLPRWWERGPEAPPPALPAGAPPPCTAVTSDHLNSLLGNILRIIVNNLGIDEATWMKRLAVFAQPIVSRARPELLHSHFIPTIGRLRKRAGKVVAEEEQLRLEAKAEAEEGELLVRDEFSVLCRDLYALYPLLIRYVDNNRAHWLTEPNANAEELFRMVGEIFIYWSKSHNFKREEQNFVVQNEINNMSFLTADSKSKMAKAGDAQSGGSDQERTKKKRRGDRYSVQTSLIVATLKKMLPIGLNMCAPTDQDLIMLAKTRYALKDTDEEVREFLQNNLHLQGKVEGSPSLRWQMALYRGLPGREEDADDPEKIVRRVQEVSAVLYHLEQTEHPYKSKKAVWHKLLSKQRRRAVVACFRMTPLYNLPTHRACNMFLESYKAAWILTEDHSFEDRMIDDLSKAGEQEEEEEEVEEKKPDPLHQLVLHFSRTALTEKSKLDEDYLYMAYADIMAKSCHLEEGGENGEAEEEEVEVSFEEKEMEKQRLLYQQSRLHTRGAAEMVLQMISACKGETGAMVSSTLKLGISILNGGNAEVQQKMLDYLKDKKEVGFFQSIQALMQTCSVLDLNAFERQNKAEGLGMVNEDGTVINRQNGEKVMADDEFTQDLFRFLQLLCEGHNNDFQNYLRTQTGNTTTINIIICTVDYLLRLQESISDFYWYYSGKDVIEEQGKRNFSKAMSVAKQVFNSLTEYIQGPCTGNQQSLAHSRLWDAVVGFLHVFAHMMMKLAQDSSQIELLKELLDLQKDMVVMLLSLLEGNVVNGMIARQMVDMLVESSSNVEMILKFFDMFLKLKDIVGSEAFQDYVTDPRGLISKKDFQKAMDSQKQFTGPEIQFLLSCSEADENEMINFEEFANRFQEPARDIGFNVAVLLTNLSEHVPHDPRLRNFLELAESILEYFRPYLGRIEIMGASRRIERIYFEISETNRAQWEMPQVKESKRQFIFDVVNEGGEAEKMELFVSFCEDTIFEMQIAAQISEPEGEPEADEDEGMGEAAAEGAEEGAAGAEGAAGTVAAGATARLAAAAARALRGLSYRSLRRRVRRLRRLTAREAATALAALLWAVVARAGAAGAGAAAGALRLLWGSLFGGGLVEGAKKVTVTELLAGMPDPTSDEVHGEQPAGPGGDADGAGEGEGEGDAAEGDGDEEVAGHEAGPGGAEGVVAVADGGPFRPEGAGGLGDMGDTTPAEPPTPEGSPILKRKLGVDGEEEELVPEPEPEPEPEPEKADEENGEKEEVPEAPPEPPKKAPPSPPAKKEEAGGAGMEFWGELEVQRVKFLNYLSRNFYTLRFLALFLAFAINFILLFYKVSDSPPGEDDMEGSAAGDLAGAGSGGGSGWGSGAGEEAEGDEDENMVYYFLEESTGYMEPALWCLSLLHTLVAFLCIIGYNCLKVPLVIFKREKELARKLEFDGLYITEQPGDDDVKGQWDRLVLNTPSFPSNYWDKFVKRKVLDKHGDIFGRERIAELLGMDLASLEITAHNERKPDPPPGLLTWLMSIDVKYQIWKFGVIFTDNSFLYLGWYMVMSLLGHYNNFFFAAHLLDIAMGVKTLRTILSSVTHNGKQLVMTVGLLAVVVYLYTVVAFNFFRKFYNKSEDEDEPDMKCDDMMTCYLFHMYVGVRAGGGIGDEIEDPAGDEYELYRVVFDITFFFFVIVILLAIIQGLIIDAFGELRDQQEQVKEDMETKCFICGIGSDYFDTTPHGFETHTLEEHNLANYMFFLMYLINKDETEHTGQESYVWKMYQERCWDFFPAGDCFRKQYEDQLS

Consider “GDCLPHAKLCKENKDCCSKKCKRRGTNIEKRCR (maurocalcine L7A mutant)”, for which the “activity on the RyR1 receptor (stimulation of [3H]-ryanodine binding)” value in assay [1] is “less active on the RyR1 receptor than MCab/Strept-Cy3”. For the same sequence, the “transduction of HEK293 cell cultures by biotinylated variant/Strept-Cy3 complexes” value in assay [2] is “effectively transduce cell cultures”. Also, in assay [3], the “penetrating activity compared with maurocalcine (factor)” value is recorded as 5.

“GDCLPHLKLCKENKDCCSKKCKRAGTNIEKRCR (maurocalcine R24A mutant)”: the “activity on the RyR1 receptor (stimulation of [3H]-ryanodine binding)” value in assay [1] is “inactive”. The “transduction of HEK293 cell cultures by biotinylated variant/Strept-Cy3 complexes” value in assay [2] is recorded as “effectively transduce cell cultures”. Besides, the “penetrating activity compared with maurocalcine (factor)” value in assay [3] was “comparable to, or even slightly less than, maurocalcine”.

Turning to “GDCLPHLKLCKENKDCCSKKCKRRGTNIEKRCR [maurocalcine]”, in assay [4], the “concentration at which interaction with GD3 is detectable” value is 100 nM and the “concentration at which interaction with GD3 reaches a maximum” value amounted to 750 nM. For the same sequence, in assay [4] (1 μM MCa, GD3 film), the “maximum increase in surface pressure a (kinetics fit)” value is given as 22.9 mN·m^−1 and the “time constant for the change in surface pressure b” value came to 0.0003 s⁻¹. Also, the “maximum increase in surface pressure a (dose-response fit)” value in assay [4] (GD3 film, as a function of MCa concentration) is listed as 22.1 mN·m^−1. Further, the EC50 in assay [4] (read-out: concentration that produces 50% of the maximum effect on GD3) came to 500 nM. Moreover, the EC50 in assay [4] (sigmoidal fit, FIG. 11B, read-out: concentration X0 giving 50% of the maximum effect on GD3 surface pressure) was determined as 490 nM. Moreover, the “limitation of penetration by depolarization (increase in extracellular KCl)” value in assay [5] is on record as “approximately 50%”. Further, the “lowest concentration at which penetration into the cells occurs” value in assay [3] (biotinylated peptide/Strept-Cy3 complexes, dose-response) is listed as 10 nM. In addition, the “change in surface pressure of the DPPC film” value in assay [6] is on record as “no significant change in surface pressure”.
